Molecules are shown by their SMILES. pEC50, pIC50: −log10 of the molar value.

The term pIC50 denotes the negative decadic logarithm of the IC50, by convention in mol/L. As a reminder, the efflux ratio is the permeability from basolateral to apical divided by that in the opposite direction, in the common usage. A word on the pEC50: it is the negative decadic logarithm of the EC50, by convention in mol/L.

Data set [1] deals with Voltage-gated inwardly rectifying potassium channel KCNH2 (Homo sapiens, UniProt Q12809). The data set is described as follows: Inhibition of hERG (unknown origin). Format: toxicity. (The hERG channel carries a current that helps repolarise heart muscle cells.)
Sequence of Voltage-gated inwardly rectifying potassium channel KCNH2 (Q12809 whole entry): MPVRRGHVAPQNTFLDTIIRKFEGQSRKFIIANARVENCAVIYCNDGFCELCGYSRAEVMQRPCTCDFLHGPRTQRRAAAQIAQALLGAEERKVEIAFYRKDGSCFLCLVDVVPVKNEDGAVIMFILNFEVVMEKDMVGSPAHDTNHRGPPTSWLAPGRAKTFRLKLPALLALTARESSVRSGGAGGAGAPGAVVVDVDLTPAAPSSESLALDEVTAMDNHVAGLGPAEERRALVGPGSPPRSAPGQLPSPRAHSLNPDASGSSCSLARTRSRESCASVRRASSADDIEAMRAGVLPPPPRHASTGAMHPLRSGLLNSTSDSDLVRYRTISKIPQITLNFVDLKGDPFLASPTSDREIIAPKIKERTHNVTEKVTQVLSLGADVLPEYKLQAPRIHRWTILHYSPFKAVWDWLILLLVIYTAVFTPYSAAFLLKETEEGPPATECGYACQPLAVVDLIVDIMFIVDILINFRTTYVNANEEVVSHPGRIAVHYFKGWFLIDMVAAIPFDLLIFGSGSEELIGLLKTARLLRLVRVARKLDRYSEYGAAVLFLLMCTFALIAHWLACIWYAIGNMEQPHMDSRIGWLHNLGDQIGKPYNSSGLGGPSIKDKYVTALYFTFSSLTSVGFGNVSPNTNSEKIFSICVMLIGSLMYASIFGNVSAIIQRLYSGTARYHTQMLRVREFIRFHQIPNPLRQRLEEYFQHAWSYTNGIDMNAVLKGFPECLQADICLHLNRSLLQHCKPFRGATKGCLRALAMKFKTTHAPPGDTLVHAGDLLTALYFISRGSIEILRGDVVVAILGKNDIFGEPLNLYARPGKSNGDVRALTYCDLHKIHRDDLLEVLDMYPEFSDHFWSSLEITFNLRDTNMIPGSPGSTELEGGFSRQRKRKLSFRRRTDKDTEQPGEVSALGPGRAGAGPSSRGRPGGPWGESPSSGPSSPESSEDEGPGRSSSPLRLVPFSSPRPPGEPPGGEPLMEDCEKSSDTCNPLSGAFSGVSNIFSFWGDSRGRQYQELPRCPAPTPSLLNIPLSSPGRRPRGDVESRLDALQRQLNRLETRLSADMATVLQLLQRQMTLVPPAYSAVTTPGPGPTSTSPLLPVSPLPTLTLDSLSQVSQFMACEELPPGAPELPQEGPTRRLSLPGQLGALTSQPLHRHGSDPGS
The test system of a further data set is KG-1. As to the kind of experiment: cells. The conditions noted are these: Homo sapiens, KG-1, 72 h.
The target of data set [2] is High affinity nerve growth factor receptor (Homo sapiens, UniProt P04629). The data set is described as follows: Inhibition of TRKA (unknown origin) by Ambit kinase assay.
Data set [3] is described as follows: Efflux ratio of apparent permeability across basolateral to apical side over apical to basolateral side in dog MDCK-MDR1 cells at 5 uM incubated for 90 mins by LC-MS/MS analysis. Format: ADME, cell-based, Canis lupus familiaris.
The subject of the next data set is Dengue virus. As to the kind of experiment: Antiviral activity against DENV infected in human Huh-7 cells assessed as reduction in viral growth incubated for 72 hrs by flow cytometry. Conditions: Huh-7, 72 h. Format: functional, organism-based. (In general: Flow cytometry measures light scatter and fluorescence of single cells or particles in a stream.)
In data set [4] the target is Proto-oncogene tyrosine-protein kinase receptor Ret (Homo sapiens, UniProt P07949). The data set is described as follows: Inhibition of RET (unknown origin) by DiscoverX KINOMEscan assay.
Data set [5] concerns the target [Pyruvate dehydrogenase (acetyl-transferring)] kinase isozyme 1, mitochondrial (Homo sapiens, UniProt Q15118). As to the kind of experiment: Inhibition of PDK1 (unknown origin) incubated for 30 mins followed by substrate addition measured after 60 mins in presence of ATP by ADP-Glo luminescent assay. For orientation: ADP-Glo turns the ADP formed in a reaction into a luminescent signal.

A further data set concerns PSN1. Format: functional, cell-based. Conditions: Homo sapiens, PSN1, 72 h.
For data set [6], the target named is T1, Receptor-interacting serine/threonine-protein kinase 1 (Homo sapiens, UniProt Q13546).
T1 sequence (Q13546 whole entry): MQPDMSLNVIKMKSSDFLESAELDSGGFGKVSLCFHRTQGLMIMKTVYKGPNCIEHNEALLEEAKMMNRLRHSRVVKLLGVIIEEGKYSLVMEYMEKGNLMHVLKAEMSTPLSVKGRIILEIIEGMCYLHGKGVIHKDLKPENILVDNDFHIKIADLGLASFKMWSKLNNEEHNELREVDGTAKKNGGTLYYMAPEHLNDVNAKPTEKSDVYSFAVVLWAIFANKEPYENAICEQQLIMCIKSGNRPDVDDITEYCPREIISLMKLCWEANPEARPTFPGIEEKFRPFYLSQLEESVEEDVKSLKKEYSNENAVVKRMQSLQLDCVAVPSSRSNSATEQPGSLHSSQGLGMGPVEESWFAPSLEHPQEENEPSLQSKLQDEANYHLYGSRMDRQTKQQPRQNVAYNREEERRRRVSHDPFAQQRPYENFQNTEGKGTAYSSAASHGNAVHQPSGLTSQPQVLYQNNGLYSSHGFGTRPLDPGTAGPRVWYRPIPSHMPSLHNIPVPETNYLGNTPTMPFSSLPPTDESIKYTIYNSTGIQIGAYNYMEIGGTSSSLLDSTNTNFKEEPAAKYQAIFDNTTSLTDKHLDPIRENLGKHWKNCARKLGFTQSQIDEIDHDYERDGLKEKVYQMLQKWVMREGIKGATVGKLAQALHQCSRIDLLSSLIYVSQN
The data set is described as follows: Inhibition of RIPK1 (unknown origin).

Data set [7] concerns the target T1, Receptor-interacting serine/threonine-protein kinase 1. As to the kind of experiment: Inhibition of human RIPK1 by ADP-Glo assay.
Data set [8] has as its target Receptor-interacting serine/threonine-protein kinase 3 (Homo sapiens, UniProt Q9Y572). The data set is described as follows: Inhibition of RIPK3 (unknown origin).
The target in data set [9] is Phosphatidylinositol 4,5-bisphosphate 3-kinase catalytic subunit alpha isoform (Homo sapiens, UniProt P42336). The data set is described as follows: Inhibition of PI3Kalpha (unknown origin).
Sequence of Phosphatidylinositol 4,5-bisphosphate 3-kinase catalytic subunit alpha isoform (P42336 whole entry, canonical isoform): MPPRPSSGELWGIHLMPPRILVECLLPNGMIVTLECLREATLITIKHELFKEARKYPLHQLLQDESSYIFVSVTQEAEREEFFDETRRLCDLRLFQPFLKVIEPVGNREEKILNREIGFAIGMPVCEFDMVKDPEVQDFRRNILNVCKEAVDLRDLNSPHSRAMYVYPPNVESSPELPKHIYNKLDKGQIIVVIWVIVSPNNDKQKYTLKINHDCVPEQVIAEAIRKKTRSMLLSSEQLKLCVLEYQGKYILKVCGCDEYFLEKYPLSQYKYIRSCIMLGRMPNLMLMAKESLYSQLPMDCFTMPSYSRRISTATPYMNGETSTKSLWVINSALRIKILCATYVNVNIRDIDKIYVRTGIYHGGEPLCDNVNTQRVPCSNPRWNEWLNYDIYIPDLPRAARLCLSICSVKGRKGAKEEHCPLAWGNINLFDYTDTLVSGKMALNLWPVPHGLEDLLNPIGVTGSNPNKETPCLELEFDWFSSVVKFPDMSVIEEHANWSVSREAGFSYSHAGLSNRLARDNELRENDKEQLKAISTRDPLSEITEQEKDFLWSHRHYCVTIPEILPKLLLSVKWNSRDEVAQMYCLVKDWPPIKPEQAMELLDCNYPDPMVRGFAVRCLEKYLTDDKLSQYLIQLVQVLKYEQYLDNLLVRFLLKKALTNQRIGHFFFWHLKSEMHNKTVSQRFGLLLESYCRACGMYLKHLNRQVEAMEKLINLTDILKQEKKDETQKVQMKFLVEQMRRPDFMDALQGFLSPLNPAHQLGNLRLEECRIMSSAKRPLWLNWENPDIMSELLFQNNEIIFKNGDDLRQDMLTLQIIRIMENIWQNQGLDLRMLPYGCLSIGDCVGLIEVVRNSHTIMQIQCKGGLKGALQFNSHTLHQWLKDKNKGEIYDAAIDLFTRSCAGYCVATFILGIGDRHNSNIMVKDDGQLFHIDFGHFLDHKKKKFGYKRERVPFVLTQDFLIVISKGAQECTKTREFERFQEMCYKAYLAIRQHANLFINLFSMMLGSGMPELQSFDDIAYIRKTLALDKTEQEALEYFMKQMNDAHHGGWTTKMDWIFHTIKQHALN
The target of data set [10] is Phosphatidylinositol 4,5-bisphosphate 3-kinase catalytic subunit beta isoform (Homo sapiens, UniProt P42338). The data set is described as follows: Inhibition of PI3Kbeta (unknown origin).
Sequence of Phosphatidylinositol 4,5-bisphosphate 3-kinase catalytic subunit beta isoform (P42338 whole entry, canonical isoform): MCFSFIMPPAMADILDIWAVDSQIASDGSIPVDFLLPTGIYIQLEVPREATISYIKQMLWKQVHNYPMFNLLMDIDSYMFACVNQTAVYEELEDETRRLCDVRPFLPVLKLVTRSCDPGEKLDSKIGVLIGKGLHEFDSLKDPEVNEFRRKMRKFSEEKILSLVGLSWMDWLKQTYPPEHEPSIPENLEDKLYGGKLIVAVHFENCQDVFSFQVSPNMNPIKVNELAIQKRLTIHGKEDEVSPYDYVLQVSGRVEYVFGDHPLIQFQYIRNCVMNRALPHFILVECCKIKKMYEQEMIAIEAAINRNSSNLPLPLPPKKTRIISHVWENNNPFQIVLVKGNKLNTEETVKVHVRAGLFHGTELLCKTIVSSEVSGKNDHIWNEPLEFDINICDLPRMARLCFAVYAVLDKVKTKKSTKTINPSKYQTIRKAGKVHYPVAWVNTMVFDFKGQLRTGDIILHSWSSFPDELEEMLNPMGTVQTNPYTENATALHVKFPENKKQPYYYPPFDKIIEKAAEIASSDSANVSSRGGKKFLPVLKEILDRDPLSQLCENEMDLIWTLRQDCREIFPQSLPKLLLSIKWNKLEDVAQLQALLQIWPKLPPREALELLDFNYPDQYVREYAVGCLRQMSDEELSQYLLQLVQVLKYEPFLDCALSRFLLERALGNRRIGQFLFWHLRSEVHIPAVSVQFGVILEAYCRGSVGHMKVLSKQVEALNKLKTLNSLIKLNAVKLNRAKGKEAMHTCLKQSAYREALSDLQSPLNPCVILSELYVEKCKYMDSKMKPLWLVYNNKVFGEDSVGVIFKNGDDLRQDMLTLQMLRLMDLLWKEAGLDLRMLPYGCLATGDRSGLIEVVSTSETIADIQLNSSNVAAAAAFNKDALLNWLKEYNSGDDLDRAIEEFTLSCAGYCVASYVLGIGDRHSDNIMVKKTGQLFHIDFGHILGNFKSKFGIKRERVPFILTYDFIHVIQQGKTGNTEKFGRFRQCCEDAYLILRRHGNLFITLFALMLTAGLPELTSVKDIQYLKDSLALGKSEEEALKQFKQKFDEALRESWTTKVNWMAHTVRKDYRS
Data set [11] addresses T2, Phosphatidylinositol 4,5-bisphosphate 3-kinase catalytic subunit delta isoform (Homo sapiens, UniProt O00329).
T2 sequence (O00329 whole entry): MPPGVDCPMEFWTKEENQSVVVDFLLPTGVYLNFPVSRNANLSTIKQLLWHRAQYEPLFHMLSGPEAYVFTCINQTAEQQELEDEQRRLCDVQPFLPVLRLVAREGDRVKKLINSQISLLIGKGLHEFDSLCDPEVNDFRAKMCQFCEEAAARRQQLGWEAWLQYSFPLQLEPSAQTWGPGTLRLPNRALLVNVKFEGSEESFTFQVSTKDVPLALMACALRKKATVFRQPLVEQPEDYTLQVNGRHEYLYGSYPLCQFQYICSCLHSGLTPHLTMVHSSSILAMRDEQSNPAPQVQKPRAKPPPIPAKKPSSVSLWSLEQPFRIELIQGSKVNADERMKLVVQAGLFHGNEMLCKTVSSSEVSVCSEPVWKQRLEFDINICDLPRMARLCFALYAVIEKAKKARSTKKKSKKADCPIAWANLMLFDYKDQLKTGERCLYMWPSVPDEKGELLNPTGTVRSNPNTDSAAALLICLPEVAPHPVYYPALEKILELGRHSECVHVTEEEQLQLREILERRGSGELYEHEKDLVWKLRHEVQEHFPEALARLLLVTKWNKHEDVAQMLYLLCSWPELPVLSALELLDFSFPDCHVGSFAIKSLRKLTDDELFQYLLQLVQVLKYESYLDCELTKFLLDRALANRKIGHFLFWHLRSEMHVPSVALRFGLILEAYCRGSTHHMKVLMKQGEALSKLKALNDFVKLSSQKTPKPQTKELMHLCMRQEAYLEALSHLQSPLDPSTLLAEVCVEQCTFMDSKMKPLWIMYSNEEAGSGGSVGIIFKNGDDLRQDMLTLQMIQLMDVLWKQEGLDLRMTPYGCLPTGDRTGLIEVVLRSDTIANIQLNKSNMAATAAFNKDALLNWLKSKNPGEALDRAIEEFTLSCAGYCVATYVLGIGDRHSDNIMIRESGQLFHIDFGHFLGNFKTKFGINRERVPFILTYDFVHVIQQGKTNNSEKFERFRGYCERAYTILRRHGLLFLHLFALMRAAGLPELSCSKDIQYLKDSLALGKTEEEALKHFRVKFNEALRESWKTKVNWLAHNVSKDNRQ
The data set is described as follows: Inhibition of PI3Kdelta (unknown origin).

Data set [12] concerns the target Phosphatidylinositol 4,5-bisphosphate 3-kinase catalytic subunit gamma isoform (Homo sapiens, UniProt P48736). As to the kind of experiment: Inhibition of PI3Kgamma (unknown origin).
For another data set, the system named is MCF7. As to the kind of experiment: Antiproliferative activity against human MCF7 cells assessed as reduction in cell viability measured after 48 hrs by MTT assay. Format: functional, cell-based. The conditions noted are these: MCF7, 48 h.
For another data set, the system named is MDA-MB-231. Format: functional, cell-based. Conditions: Homo sapiens, MDA-MB-231, 48 h.

Sequence of [Pyruvate dehydrogenase (acetyl-transferring)] kinase isozyme 1, mitochondrial (Q15118 whole entry): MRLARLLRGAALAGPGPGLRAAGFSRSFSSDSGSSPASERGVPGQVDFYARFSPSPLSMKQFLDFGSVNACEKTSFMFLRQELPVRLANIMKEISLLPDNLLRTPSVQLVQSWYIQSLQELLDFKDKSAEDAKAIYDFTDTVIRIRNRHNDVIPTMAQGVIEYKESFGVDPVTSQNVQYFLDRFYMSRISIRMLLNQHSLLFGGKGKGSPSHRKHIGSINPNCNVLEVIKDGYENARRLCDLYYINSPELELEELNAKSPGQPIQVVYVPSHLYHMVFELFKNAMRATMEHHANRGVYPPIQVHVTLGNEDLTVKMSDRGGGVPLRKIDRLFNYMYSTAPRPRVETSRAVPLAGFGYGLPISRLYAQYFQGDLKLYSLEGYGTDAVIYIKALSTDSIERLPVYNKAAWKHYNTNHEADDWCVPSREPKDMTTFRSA
Sequence of Phosphatidylinositol 4,5-bisphosphate 3-kinase catalytic subunit gamma isoform (P48736 whole entry, canonical isoform): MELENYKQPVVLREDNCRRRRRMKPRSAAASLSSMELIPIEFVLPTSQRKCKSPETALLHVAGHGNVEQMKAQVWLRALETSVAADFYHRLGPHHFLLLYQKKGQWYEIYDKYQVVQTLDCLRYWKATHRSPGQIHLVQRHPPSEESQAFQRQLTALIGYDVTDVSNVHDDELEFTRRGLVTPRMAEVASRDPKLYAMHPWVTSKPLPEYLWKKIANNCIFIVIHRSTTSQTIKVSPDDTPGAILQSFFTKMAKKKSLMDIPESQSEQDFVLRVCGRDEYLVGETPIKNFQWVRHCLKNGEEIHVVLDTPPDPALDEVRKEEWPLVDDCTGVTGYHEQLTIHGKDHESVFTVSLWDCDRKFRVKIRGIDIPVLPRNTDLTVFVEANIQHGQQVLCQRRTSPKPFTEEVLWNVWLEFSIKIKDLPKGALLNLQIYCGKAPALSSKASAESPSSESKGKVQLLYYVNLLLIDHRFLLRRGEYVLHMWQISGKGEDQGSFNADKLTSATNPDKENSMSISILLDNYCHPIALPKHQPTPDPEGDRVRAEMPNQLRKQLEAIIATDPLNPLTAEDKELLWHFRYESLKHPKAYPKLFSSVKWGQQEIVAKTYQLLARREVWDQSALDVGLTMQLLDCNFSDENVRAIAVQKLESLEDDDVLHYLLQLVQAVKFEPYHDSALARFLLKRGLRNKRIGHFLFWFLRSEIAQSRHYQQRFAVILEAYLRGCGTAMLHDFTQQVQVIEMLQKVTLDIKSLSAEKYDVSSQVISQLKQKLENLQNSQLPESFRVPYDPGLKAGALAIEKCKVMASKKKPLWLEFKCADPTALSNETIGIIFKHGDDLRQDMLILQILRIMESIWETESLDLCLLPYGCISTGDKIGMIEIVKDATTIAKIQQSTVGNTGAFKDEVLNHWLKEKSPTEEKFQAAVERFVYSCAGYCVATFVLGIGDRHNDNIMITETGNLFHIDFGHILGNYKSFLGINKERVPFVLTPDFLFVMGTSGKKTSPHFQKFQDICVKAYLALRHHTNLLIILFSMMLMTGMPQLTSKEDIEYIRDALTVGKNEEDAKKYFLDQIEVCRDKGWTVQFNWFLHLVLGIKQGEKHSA

With `NC(=O)c1cc(Cl)c2c(Cl)c(C3CC3)n(C3CCCNC3)c2n1` (centres undefined), the pIC50 in data set [1] was 6.00; in the data set on KG-1, above 7.00.

For `NC(=O)c1cc(Cl)c2c(Cl)c(I)n(C3CCCNC3)c2n1` (centres undefined), the pIC50 in data set [1] was 6.00; with KG-1, above 7.00.

`NC(=O)c1cc(Cl)c2c(Cl)c(C#CC3CC3)n(C3CCCNC3)c2n1` (centres undefined) showed a pIC50 in the data set with KG-1 above 7.00.

On to `Cc1cc(-n2cc(C(=O)N3CCOCC3)c3ccc(N[C@@H](C)c4ccc(F)cn4)nc32)[nH]n1`, for which, in data set [2], the pIC50 is 8.60. In [3], the efflux ratio at 1.5 h, 5 µM was 18.

For the molecule `COc1ccc(-c2cnc3[nH]cc(C#Cc4cccnc4)c3c2)cc1OC`, in the data set with Dengue virus, the pEC50 was 6.14.

In data set [4], `CN1CCN(Cc2ccc(NC(=O)c3cccc(/N=N/c4cnc5[nH]ccc5c4)c3)cc2C(F)(F)F)CC1` had a pIC50 of 7.30.

As to `Cn1cc(-c2nc(N)nnc2-c2c[nH]c3ccc(F)cc23)c2cc(Br)cnc21`, the negative logarithm of the IC50 (pIC50) in data set [5] was 7.52; in the data set on PSN1, 5.48.

Turning to `Oc1ccc(-c2cnc3[nH]ccc3c2)cc1`, the pIC50 in data set [6] was 5.83.

For `Cn1cc(-c2nnc(N)nc2-c2c[nH]c3ccc(Br)cc23)c2cc(Br)cnc21`, the pIC50 was 7.52 in data set [5] and 5.48 in the data set on PSN1.

Regarding `NC(=O)c1ccc(-c2cc3cccnc3[nH]2)cc1`, the negative-log IC50 (pIC50) in data set [6] was 7.05.

On to `O=C(c1ccc(-c2cc3cccnc3[nH]2)cc1)N1CCOCC1`, for which the pIC50 in data set [7] was 7.10; in data set [8], below 4.70.

In the case of `Cn1cc(-c2nc(N)nnc2-c2c[nH]c3ccc(Br)cc23)c2cc(Br)cnc21`, the figures for the pIC50 (in [5]; in the data set on PSN1) were 7.52 and 5.48, respectively.

On to `Cn1cc(-c2nnc(N)nc2-c2c[nH]c3ccc(F)cc23)c2cc(Br)cnc21`, for which the pIC50 was 7.52 in [5] and 5.48 in the data set with PSN1.

In the case of `O=S(=O)(Nc1cc(-c2cnc3[nH]cc(-c4ccc(N5CCOCC5)nc4)c3c2)cnc1Cl)c1ccccc1`, the pIC50 was 9.52 in data set [9]; 9.52 in data set [10]; 9.52 in data set [11]; 9.52 in data set [12]; 5.92 in the data set with MCF7; 6.35 in the data set on MDA-MB-231.

As for `Cc1cc(-n2cc(C(=O)N3CCO[C@@H](C)C3)c3ccc(OC(C)c4ccc(F)cn4)nc32)n[nH]1` (some centres undefined), the efflux ratio at 1.5 h, 5 µM in data set [3] came out at 1.

For `O=S(=O)(Nc1cc(-c2cnc3[nH]cc(-c4cnn(CCN5CCOCC5)c4)c3c2)cnc1Cl)c1ccccc1`, the negative-log IC50 (pIC50) is 9.52 in data set [9]; 9.52 in data set [10]; 9.52 in data set [11]; 9.52 in data set [12]; 5.22 with MCF7; 5.92 in the data set with MDA-MB-231.
